Numbering of substitutions follows the chain as printed.
Key:
Assay type in all cases: cell-based
W741L AR = target: T1, W741L AR (Homo sapiens, UniProt P10275, W742L); assay: Agonism in W741L mutant AR, AR transactivation assay in COS-1 cells, test compounds alone; conditions: 10 microM, compound alone
T1 construct: expressed in transfected cells; host or cells: COS-1
T1 sequence (P10275 1-920 W742L): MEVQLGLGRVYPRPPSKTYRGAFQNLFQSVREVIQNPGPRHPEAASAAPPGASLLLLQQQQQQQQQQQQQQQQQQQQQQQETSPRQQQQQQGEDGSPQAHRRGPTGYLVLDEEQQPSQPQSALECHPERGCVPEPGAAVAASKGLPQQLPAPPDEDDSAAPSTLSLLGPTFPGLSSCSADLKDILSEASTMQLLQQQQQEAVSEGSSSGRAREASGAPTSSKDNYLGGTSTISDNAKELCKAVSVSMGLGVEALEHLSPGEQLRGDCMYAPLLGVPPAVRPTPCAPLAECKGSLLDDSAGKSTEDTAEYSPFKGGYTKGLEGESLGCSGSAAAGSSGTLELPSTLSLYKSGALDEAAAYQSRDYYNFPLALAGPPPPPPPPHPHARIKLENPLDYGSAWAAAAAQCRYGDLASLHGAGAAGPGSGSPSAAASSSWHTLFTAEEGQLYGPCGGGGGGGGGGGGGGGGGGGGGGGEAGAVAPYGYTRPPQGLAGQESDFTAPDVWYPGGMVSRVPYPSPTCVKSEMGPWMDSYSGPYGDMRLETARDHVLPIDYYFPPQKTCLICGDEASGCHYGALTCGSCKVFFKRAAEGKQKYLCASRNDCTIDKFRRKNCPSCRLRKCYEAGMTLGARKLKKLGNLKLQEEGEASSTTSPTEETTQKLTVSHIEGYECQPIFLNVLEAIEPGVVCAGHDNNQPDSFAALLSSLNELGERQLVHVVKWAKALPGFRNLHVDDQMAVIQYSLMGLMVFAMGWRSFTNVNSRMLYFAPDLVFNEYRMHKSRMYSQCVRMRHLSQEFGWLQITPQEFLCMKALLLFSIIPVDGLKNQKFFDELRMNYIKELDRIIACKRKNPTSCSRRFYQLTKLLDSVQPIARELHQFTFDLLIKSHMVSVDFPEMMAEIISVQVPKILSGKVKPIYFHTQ
Description: COS-1 (American Type Culture Collection) were cultured in DMEM supplemented with 10% FBS, penicillin (6.25 U/ml) and streptomycin (6.25 μg/ml) and seeded onto 48-well plates (50 000 cells/well) one day before transfection. Transfection media containing 2.5% charcoal-stripped FBS in DMEM was changed on cells 4 h prior to transfection. Cells were transfected with 50 ng of reporter gene plasmid (pPB-286/+32-LUC; PB, probasin promoter), 5 ng of AR expression plasmid (pSG5-hAR), and 5 ng of pCMVβ (an internal, beta-galactosidase control for transfection efficiency and cell growth) using TranslT-LT1 reagent (Mirus Bio Corporation) according to the manufacturer's instructions. […] After 18 h, reporter gene activities (LUC and beta-galactosidase) were determined according to standard methods. The data are expressed as relative LUC activity (luciferase light units divided by beta-galactosidase A420nm to control for transfection efficiency) of a given compound in relation to the activity of a reference test item (=100%).
Agonism in W741L AR of compounds of the present invention was measured in AR transactivation assay in COS-1 cells as described above except that AR expression vector harboring the W741L mutation was used instead of the WT AR. The transfected cells were exposed to test compounds alone.

T877A AR = target: T2, T877A AR (Homo sapiens, UniProt P10275, T878A); assay: Agonism in T877A mutant AR, AR transactivation assay in COS-1 cells, test compounds alone; conditions: 10 microM, compound alone
T2 construct: expressed in transfected cells; host or cells: COS-1
T2 sequence (P10275 1-920 T878A): T1 sequence (P10275 1-920 W742L) with L742W, T878A
Description: The transfected cells were exposed to test compounds alone. Testosterone was used as reference agonist, and its' relative LUC activity representing AR-dependent transcription was set to 100%.

WT AR = target: T3, WT AR (Homo sapiens, UniProt P10275); assay: Antagonism in WT AR, AR transactivation reporter gene assay in COS-1 cells, competitive setting with 50 nM testosterone; conditions: 18 h
T3 construct: expressed in transfected cells; host or cells: COS-1
T3 sequence (P10275 1-920): T1 sequence (P10275 1-920 W742L) with L742W
Description: After 18 h, reporter gene activities (LUC and beta-galactosidase) were determined according to standard methods. The data are expressed as relative LUC activity (luciferase light units divided by beta-galactosidase A420nm to control for transfection efficiency) of a given compound in relation to the activity of a reference test item (=100%).
Antagonism in WT AR of compounds of the present invention was measured in AR transctivation assay in COS-1 cells in competitive setting using testosterone as a reference agonist as described above. […] Relative LUC activity representing AR-dependent transcription obtained by exposure to testosterone alone was set to 100%.

Structure (SMILES) | Relative LUC activity (%) in W741L AR in relation to BIC (100%) (W741L AR) [%] | Relative LUC activity (%) in T877A AR in relation to testosterone (100%) (T877A AR) [%] | Relative LUC activity (%) indicating residual androgen activity in relation to testosterone (100%) (WT AR; 1 microM compound) [%] | Relative LUC activity (%) indicating residual androgen activity in relation to testosterone (100%) (WT AR; 10 microM compound) [%]
N#Cc1ccc(NC(=O)C(O)(CS(=O)(=O)c2ccc(F)c(F)c2)c2ccc(C(F)(F)F)cc2)cc1Cl (centres unmarked) [Example 10, N-(3-chloro-4-cyanophenyl)-3-[(3,4-difluorobenzene)sulfonyl]-2-hydroxy-2-[4-(trifluoromethyl)phenyl]propanamide] | 3 | 1 | 23 | 6
N#Cc1ccc(NC(=O)C(O)(CS(=O)(=O)c2ccc(Cl)cc2)c2ccc(Cl)cc2)cc1Cl (centres unmarked) [Example 18, N-(3-chloro-4-cyanophenyl)-3-[(4-chlorobenzene)sulfonyl]-2-(4-chlorophenyl)-2-hydroxypropanamide] | 27 | 6 | 7 | 1
N#Cc1ccc(S(=O)(=O)CC(O)(C(=O)Nc2ccc([N+](=O)[O-])c(Cl)c2)c2ccc(C(F)(F)F)cc2)cc1F (centres unmarked) [Example 19, N-(3-chloro-4-nitrophenyl)-3-[(4-cyano,3-fluorobenzene)sulfonyl]-2-hydroxy-2-[4-(trifluoromethyl)phenyl]propanamide] | 9 | 2 | 11 | 1
N#Cc1ccc(NC(=O)C(O)(CS(=O)(=O)c2ccc(F)cc2)c2ccc(C(F)(F)F)cc2)cc1C(F)(F)F (centres unmarked) [Example 21, N-(4-cyano-3-(trifluoromethyl)phenyl)-3-[(4-fluorobenzene)sulfonyl]-2-hydroxy-2-[4-(trifluoromethyl)phenyl]propanamide] | 3 | 4 | 24 | 1
CCS(=O)(=O)CC(O)(C(=O)Nc1ccc(C#N)c(Cl)c1)c1ccc(OC)c(F)c1 (centres unmarked) [Example 25, N-(3-chloro-4-cyanophenyl)-2-((3-fluoro-4-methoxy)phenyl)-3-(ethanesulfonyl)-2-hydroxypropanamide] | 9 | 9 | 22 | 6
N#Cc1ccc(NC(=O)C(O)(CS(=O)(=O)Cc2ccc(Cl)cc2)c2ccc(Cl)cc2)cc1Cl (centres unmarked) [Example 27, N-[3-chloro-4-cyanophenyl]-3-{[(4-chlorophenyl)methane]sulfonyl}-2-hydroxy-2-[4-(chloro)phenyl]propanamide] | 6 | 1 | 14 | 1
COc1ccc(C(O)(CS(=O)(=O)Cc2ccc(F)cc2)C(=O)Nc2ccc(C#N)c(Cl)c2)cc1F (centres unmarked) [Example 32, N-(3-chloro-4-cyanophenyl)-2-(3-fluoro-4-methoxyphenyl)-3-{[(4-fluorophenyl)methane]sulfonyl}-2-hydroxypropanamide] | 3 | 2 | 24 | 2
N#Cc1ccc(NC(=O)C(O)(CS(=O)(=O)Cc2ccc(F)cc2)c2cccc(C(F)(F)F)c2)cc1Cl (centres unmarked) [Example 40, N-(3-chloro-4-cyanophenyl)-3-{[(4-fluorophenyl)methane]sulfonyl}-2-hydroxy-2-[3-(trifluoromethyl)phenyl]propanamide] | 2 | 1 | 22 | 2
